Test [1] deals with T1, CXCR2 (Homo sapiens, UniProt P25025).
T1 sequence (P25025 1-360): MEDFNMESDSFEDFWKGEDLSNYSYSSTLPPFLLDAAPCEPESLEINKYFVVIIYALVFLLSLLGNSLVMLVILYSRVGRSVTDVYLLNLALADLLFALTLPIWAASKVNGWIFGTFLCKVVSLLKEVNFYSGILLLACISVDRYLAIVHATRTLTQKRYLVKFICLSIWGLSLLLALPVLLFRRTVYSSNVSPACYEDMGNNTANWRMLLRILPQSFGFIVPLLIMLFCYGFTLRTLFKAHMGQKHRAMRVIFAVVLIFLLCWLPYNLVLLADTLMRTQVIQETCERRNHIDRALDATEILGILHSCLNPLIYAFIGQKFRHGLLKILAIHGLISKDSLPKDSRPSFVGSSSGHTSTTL
The conditions noted are these: read-out: Kd of IL-8 binding to CXCR2; cited from earlier work.

For another test, the target named is T2, CXCR1 (Homo sapiens, UniProt P25024).
T2 sequence (P25024 1-350): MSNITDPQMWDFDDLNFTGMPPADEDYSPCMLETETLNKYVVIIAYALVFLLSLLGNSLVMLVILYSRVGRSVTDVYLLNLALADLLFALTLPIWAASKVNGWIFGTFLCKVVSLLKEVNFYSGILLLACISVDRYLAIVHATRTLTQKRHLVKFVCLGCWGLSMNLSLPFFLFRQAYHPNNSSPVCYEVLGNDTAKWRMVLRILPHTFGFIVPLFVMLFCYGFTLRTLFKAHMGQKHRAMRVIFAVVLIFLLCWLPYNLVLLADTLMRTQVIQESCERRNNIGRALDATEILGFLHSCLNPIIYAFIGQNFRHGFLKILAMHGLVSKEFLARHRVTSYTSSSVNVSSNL
The conditions noted are these: read-out: Kd of IL-8 binding to CXCR1; cited from earlier work.

For another test, the system named is CXCR2+ G-MDSCs. Nature of the test: Thioglycolate-induced peritonitis, G-MDSC recruitment to peritoneum (flow cytometry). The conditions noted are these: 2 mg/kg IP at thioglycolate infusion and 12 hr later; peritoneal cells harvested at 24 h; control and Poly I:C-treated mice. Format: in vivo, mouse. How it is done: FIGS. 3A-3B. A) Representative flow cytometry plots of CXCR2 expression on peritoneal M-MDSCs and G-MDSCs of control and Poly I:C-treated CSF1R^FIFI-Mx1-Cre mice (n=5 mice). Peritoneal cells were harvested […] after thioglycolate infusion (n=5 mice). B) Representative flow cytometry plots of peritoneal M-MDSCs and G-MDSCs harvested 24 hrs after thioglycolate infusion of control and Poly I:C-treated CSF1R^FI/FI-Mx1-Cre mice (n=5 mice). Mice were either untreated or treated with 2 mg/kg SB225002 (CXCR2 inhibitor) at time of thioglycolate infusion and 12 hrs before harvesting (n=5 mice).
Blocking G-MDSC recruitment in thioglycolate-induced peritonitis with a CXCR2 inhibitor. The C-X-C chemokine receptor 2 (CXCR2) signaling axis plays a key role in the migration of immunosuppressive MDSCs. To identify whether these subsets of MDSCs in the peritoneal cavity elicited through thioglycolate-induced peritonitis express CXCR2, peritoneal cells were harvested 24 hours after intraperitoneal injection of thioglycolate and were analyzed by flow cytometry (FIG. 3A). […] At the 24 h time point, peritoneal cells were harvested and analyzed by flow cytometry (FIG. 3B).
Flow cytometry. […] Fluorescence compensations were performed using single-stained UltraComp eBeads (Affymetrix). […] Data was acquired using a FACSAria II cell sorter (BD Biosciences) and analyzed using FlowJo software. […]
For orientation: A flow cytometer gives signals particle by particle.

Test [2] deals with T1, CXCR2. The conditions noted are these: cited from earlier work.
The next test concerns B16-F10 melanoma. Kind of test: B16-F10 melanoma in control and Poly I:C-treated CSF1R Fl/Fl-Mx1-Cre mice treated with CXCR2 inhibitor. The class given is in vivo, mouse. On the procedure: FIGS. 5A-5D. A) CSF1R^FI/FI-Mx1-Cre mice received three intraperitoneal injections of Poly I:C (100 ug) and were rested for one week. 5×10^5 B16-F10 mouse melanoma cells were then subcutaneously engrafted into flanks of control and Poly I:C-treated CSF1R^FIFI-Mx1-Cre mice. Following the day of engraftment, mice were either untreated or treated daily with 2 mg/kg SB225002 (CXCR2 inhibitor). Burden of B16-F10 melanoma tumors in control and Poly I:C-treated CSF1R^FIFI-Mx1-Cre mice treated with or without SB225002. Data are mean±s.e.m. (n=5 mice per group). B) Flow cytometry analysis of M-MDSCs and G-MDSCs in tumors of mice. MDSCs are gated on CD11b+ cells. Data are mean±s.e.m. (n=5 mice per group). C) Flow cytometry analysis of M-MDSCs and G-MDSCs in bone marrow of tumor-bearing mice. MDSCs are gated on CD11b+ cells. Data are mean±s.e.m. (n=5 mice per group). D) Flow cytometry analysis of M-MDSCs and G-MDSCs in the peripheral blood of tumor-bearing mice. MDSCs are gated on CD11b+ cells. Data are mean±s.e.m. (n=5 mice per group).
Targeting G-MDSCs in B16-F10 melanoma with a CXCR2 inhibitor. To determine whether targeting CXCR2+ G-MDSCs could lead to an anti-tumor response, poly I:C and PBS mice were subcutaneously engrafted with B16-F10 melanoma. The day after engraftment, mice were treated intraperitoneally with PBS or SB225002 six days per week. […] Tumors were harvested and subjected to flow cytometry for immunophenotyping.
Flow cytometry. Samples were blocked with monoclonal antibody to CD16/32 (TruStain fcX, BioLegend) before staining with antibody panels. Samples were stained for 30 min on ice, and subsequently washed with FACS buffer (PBS with 1% FBS buffer). Fluorescence compensations were performed using single-stained UltraComp eBeads (Affymetrix). The following antibodies were used for FACS analysis: Anti-CD11b (M1/70 BD Biosciences); Anti-F4/80 (BM8 BioLegend); Anti-Ly6G (1A8 BioLegend), Anti-Ly6C (HK1.4 BioLegend); Anti-CXCR2 (SA044G4 BioLegend). SYTOX blue dead cell stain (Invitrogen) was used for dead cell exclusion. Data was acquired using a FACSAria II cell sorter (BD Biosciences) and analyzed using FlowJo software.
In vivo tumor experiments and treatments. Mice 6-8 weeks of age were given subcutaneous injection of B16-F10 melanoma cells in PBS into the right flank. Tumor growth was measured by using calipers and volumes were calculated by using the formula: volume= 4/3π×(x/2)2×(y/2), where x is the largest measurable dimension of the tumor and y is the dimension immediately perpendicular to x. Tumor volumes were evaluated using two-way ANOVA in GraphPad Prism. For tumor treatments, mice were given mouse IgG1 isotype control clone MOPC21 (BioXCell), anti-CD47 mAb clone MIAP410 (BioXCell), or SB225002 (ToCris) by intraperitoneal injection.

The Kd is the free concentration of one partner at which half of the binding sites on the other are occupied at equilibrium, for simple one-to-one binding. For the molecule “IL-8: chemokine ligand of CXCR1 and CXCR2”, the Kd with CXCR2 [1] and in the test with CXCR1 was about 4 nM each time.

As for `O=C(Nc1ccc([N+](=O)[O-])cc1O)Nc1ccccc1Br` [SB225002], the “Percentage of G-MDSCs in the peritoneal cavity” value with CXCR2+ G-MDSCs is given as “significantly decreased percentage of G-MDSCs”. Moreover, the Selective/Pan entry on CXCR2 [2] is reported as “Selective”. In the test on B16-F10 melanoma (2 mg/kg intraperitoneally from the day after engraftment, especially in mice expressing CSF1R), the “Tumor progression (burden of B16-F10 melanoma tumors)” value was “significantly decreased tumor progression”. Further, in the test with B16-F10 melanoma (bone marrow, flow cytometry), the “G-MDSCs in bone marrow of tumor-bearing mice” value was “significant decrease of G-MDSCs”. Further, in the test with B16-F10 melanoma (peripheral blood, flow cytometry), the “G-MDSCs in peripheral blood of tumor-bearing mice” value is on record as “significant decrease of G-MDSCs”. In addition, in the test on B16-F10 melanoma (tumors, flow cytometry, gated on CD11b+ cells), the “Tumor-infiltrating G-MDSCs” value is reported as “significant decrease in tumor-infiltrating G-MDSCs”.

`CC[C@@H](Nc1c(Nc2cccc(C(=O)N(C)C)c2O)c(=O)c1=O)c1ccc(C)o1` [Navaraxin, Navarixin]: the Selective/Pan result at CXCR2 [2] is listed as “Selective”.

In the case of `O=C(Nc1ccc(F)cc1)c1cnc(SCc2cc(OC(F)(F)F)ccc2B(O)O)nc1` [SX-682], at CXCR2 [2], the Selective/Pan result is listed as “Pan”.

The record behind these values is patent US20250376522A1, “Targeting Cells with a Combination of CXCR2 Inhibition and CD47 Blockade” (The Board of Trustees of the Leland Stanford Junior …, priority 2022, published 2025).
